Assay results reported in publication PMC4826333 (Journal of medicinal chemistry, 2015).

Experiments:
[1] = tested on: PC-3, DU-145, LNCaP, and HeLa; test: Trypan blue cytotoxicity, panel of cancer cell lines; settings: four cancer cell lines; for cytotoxicity as compared with curcumin: 1 and 10 μM
PC-3, DU145, LNCaP, HeLa = test: Relative potency versus curcumin over the cancer cell lines, WST-1 and TB; assay type: cell-based, human; settings: in the tested cancer cell lines

O=C(/C=C/c1nc2ccccc2s1)/C=C/c1nc2ccccc2s1 [Compound 35, (1E,4E)-1,5-Bis(benzo[d]thiazol-2-yl)penta-1,4-dien-3-one]
cytotoxicity as compared with curcumin [1]: as effective (or slightly more effective) as curcumin

O=C(/C=C/c1ccc2ccccc2n1)/C=C/c1ccc2ccccc2n1 [Compound 31, (1E,4E)-1,5-Di(quinolin-2-yl)penta-1,4-dien-3-one]
cytotoxicity as compared with curcumin [1]: as effective (or slightly more effective) as curcumin

Cc1nc(/C=C/C(=O)/C=C/c2nc(C)c(-c3ccncc3)s2)sc1-c1ccncc1 [Compound 34, (1E,4E)-1,5-Bis(4-methyl-5-(pyridin-4-yl)thiazol-2-yl)penta-1,4-dien-3-one]
activity at 10 μM concentration [1]: almost inactive
cytotoxicity as compared with curcumin [1]: did not show increased or similar cytotoxicity

O=C(/C=C/c1cc2ccccc2nc1Cl)/C=C/c1cc2ccccc2nc1Cl [Compound 33, (1E,4E)-1,5-Bis(2-chloroquinolin-3-yl)penta-1,4-dien-3-one]
activity at 10 μM concentration [1]: almost inactive
cytotoxicity as compared with curcumin [1]: did not show increased or similar cytotoxicity

O=C(/C=C/c1cccnc1)/C=C/c1cccnc1 [Compound 27, (1E,4E)-1,5-Di(pyridin-3-yl)penta-1,4-dien-3-one]
cytotoxicity as compared with curcumin [1]: as effective (or slightly more effective) as curcumin

O=C(/C=C/c1ccnc2ccccc12)/C=C/c1ccnc2ccccc12 [Compound 32, (1E,4E)-1,5-Di(quinolin-4-yl)penta-1,4-dien-3-one]
cytotoxicity as compared with curcumin [1]: as effective (or slightly more effective) as curcumin

Cn1cc(/C=C/C(=O)/C=C/c2cnn(C)c2)cn1 [Compound 17, (1E,4E)-1,5-Bis(1-methyl-1H-pyrazol-4-yl)penta-1,4-dien-3-one]
activity at 10 μM concentration [1]: almost inactive
cytotoxicity as compared with curcumin [1]: did not show increased or similar cytotoxicity

Cn1nc(C(F)(F)F)c(/C=C/C(=O)/C=C/c2c(C(F)(F)F)nn(C)c2Cl)c1Cl [Compound 18, (1E,4E)-1,5-Bis(5-chloro-1-methyl-3-(trifluoromethyl)-1H-pyrazol-4-yl)penta-1,4-dien-3-one]
cytotoxicity as compared with curcumin [1]: as effective (or slightly more effective) as curcumin

Cn1cncc1/C=C/C(=O)/C=C/c1cncn1C [Compound 16, (1E,4E)-1,5-Bis(1-methyl-1H-imidazol-5-yl)penta-1,4-dien-3-one]
cytotoxicity as compared with curcumin [1]: as effective (or slightly more effective) as curcumin

Cc1nc(C(F)(F)F)c(/C=C/C(=O)/C=C/c2sc(C)nc2C(F)(F)F)s1 [Compound 24, (1E,4E)-1,5-Bis(2-methyl-4-(trifluoromethyl)thiazol-5-yl)-penta-1,4-dien-3-one]
times more potent than curcumin (PC-3, DU145, LNCaP, HeLa): 11–36 times

O=C(/C=C/c1cocn1)/C=C/c1cocn1 [Compound 20, (1E,4E)-1,5-Bis(oxazol-4-yl)penta-1,4-dien-3-one]
cytotoxicity as compared with curcumin [1]: as effective (or slightly more effective) as curcumin
